Test results reported in paper PMC11696576, “Next generation thiazolyl ketone inhibitors of cytosolic phospholipase A2 α for targeted cancer therapy” (Nature Communications, 2025).
Several values for one entry are separate records, joined by “and”; a condition that tells them apart may be missing. Equal values may be shown once. Read-outs that look alike come from different tables or passages of the source.

System: panel of 66 cancer cell lines
Test: cancer cell line screen, proliferation assay (ATPlite, 72 h)
Format: cell-based, human
Details: for raw signal, dose-response (Figure S7a): rep1, rep2, listed as AVX235; for IC50: Homo sapiens
Source text: Targeting specific molecular vulnerabilities in cancer is considered a key approach to reducing the adverse effects of chemotherapy. However, the events that govern the susceptibility to suppression of the cPLA2α in cancer remain largely unexplored. We therefore took the approach of screening the antiproliferative activity of AVX420 in a panel of 66 cancer cell lines (hereafter referred to as the cancer cell line screen or CCLS) to allow us to investigate molecular and genetic vulnerabilities to the drug.
Screening of compound activities in 66 cancer cell lines was carried out at the Netherlands Translation Research Center. Briefly, proliferation assays were performed 72 h after compound addition using ATPlite 1step reagent (Perkin Elmer). IC50s calculated by non-linear regression analysis were used as a measure of compound activity for investigating associations with genetic factors. A complete description of the laboratory and data analysis methods are available in the Supplementary Information file (Supplemental Methods: Cancer Cell Line Screening).
Cancer cell line screening
Cell proliferation assays
All cell lines were from the American Type Culture Collection (ATCC) Manassas, Virginia (US) and maintained under ATCC-recommended protocols and within 9 pas- […]
DMSO at -80°C until one hour before use. Cells exposed within one hour after thaw-ing of the compound stocks. Final compound concentration range in the assay was 10 […]
cated by supplier. Compounds were dissolved in 100 % DMSO and stored at room temperature. Final concentration of the reference compounds in the assay was 3.16x10-5 M to 3.16x10-9 M. The final DMSO concentration during incubation was […]
Cell lines were plated in Advanced RPMI 1640 (Gibco, ref 12633-012) cell culture medium, containing 1% Glutamax solution (Gibco, ref 35050-038), 0.4% Pen Strep solution (Gibco, ref 15140-122) and bovine serum. The cPLA2α inhibitors were tested in 0.5% bovine serum (HyClone, ref SH30072.03) with the exception of769-P, A-204, BT-549, SR, T98G, which were tested in the presence of 1.0% serum and A-704 and LNCaP FGS, which were tested in the in the presence of 10% serum. Reference com-pounds were all tested in the presence of 10% bovine serum.
Cells were dispensed in a 384-well plate, at a concentration of 200 - 3200 cells per well, depending on the cell line, in 45 μL medium. Plated cells were incubated in a humidified atmosphere of 5% CO2 at 37 °C. After 24 hours, 5 μL of compound dilu-tion was added and plates were further incubated for another 72 hours. After 72 hours, 25 μL of ATPlite 1Step™ (PerkinElmer) solution was added to each well, and subse-quently shaken for 2 minutes. After 10 minutes of incubation in the dark, the lumines-cence was recorded on an Envision multimode reader (PerkinElmer).
Cell growth control. The cellular doubling times of all cell lines are calculated from the t = 0 hours and t = 72 hours growth signals of the untreated cells. If the doubling time is out of specification (0.5 – 2.0 times deviating from historic average) the assay […]
IC50s were calculated by non-linear regression using IDBS XLfit 5. The percentage growth after 72h (%-growth) was calculated as follows: 100% x (luminescence t = 72h / luminescence untreated,t=72h). This was fitted to the 10log compound concentration (conc) by a 4-parameter logistics curve: %-growth = bottom + (top – bottom) / (1+ 10(logIC50 – conc)*hill)), where hill is the Hill-coefficient, and bottom and top the asymptotic mini-mum and maximum cell growth that the compound allows in that assay.
All analysis were performed in the statistical software package R and visualized using GraphPad Prism version 10.0 .0

CCCCCCCCc1ccc(OCC(=O)c2nc(C(=O)OC)cs2)cc1 [GK470]
average panel 10logIC50 (10log of IC50 in nM, panel average): 4.20 | pIC50 (769P, kidney): 4,709 | pIC50 (786O, kidney): 4,868 | pIC50 (A172, central_nervous_system): 4,701 | pIC50 (A204, soft_tissue): 4,858 | pIC50 (A375, skin): 4,792 | pIC50 (A427, lung): 4,933 | pIC50 (A498, kidney): 4,604 | pIC50 (A549, lung): 4,718 | pIC50 (ACHN, kidney): 4,677 | pIC50 (AN3CA, endometrium): 4,738 | pIC50 (AU565, breast): 4,915 | pIC50 (AsPC1, pancreas): 4,828 | pIC50 (BT20, breast): 4,526 | pIC50 (BT549, breast): 4,643 | pIC50 (BxPC3, pancreas): 4,719 | pIC50 (C33A, cervix): 4,835 | pIC50 (CAL27, upper_aerodigestive_tract): 4,767 | raw signal, dose-response (Figure S7a) (CCRF-CEM, Log10 M -4): 6827 and 7267 | raw signal, dose-response (Figure S7a) (CCRF-CEM, Log10 M -6): 6001427 and 6137653 | raw signal, dose-response (Figure S7a) (CCRF-CEM, Log10 M -6.5): 6250880 and 6122947 | raw signal, dose-response (Figure S7a) (CCRF-CEM, Log10 M -7): 6208933 and 6388787 | raw signal, dose-response (Figure S7a) (CCRF-CEM, Log10 M -7.5): 5662213 and 5677453 | raw signal, dose-response (Figure S7a) (CCRF-CEM, Log10 M -8): 5954640 and 6349707 | pIC50 (COLO829, unknown): 4,775 | pIC50 (Daoy, central_nervous_system): 4,799 | pIC50 (DoTc24510, cervix): 4,777 | pIC50 (FaDu, upper_aerodigestive_tract): 4,794 | pIC50 (HCT15, large_intestine): 4,921 | pIC50 (HCT116, large_intestine): 4,798 | IC50 (769-P, read-out: IC50): 19.6 µM | IC50 (786-0, 786-O, read-out: IC50): 13.6 µM | IC50 (72 h, panel average, 72 h, read-out: average IC50 in the cancer cell line screen): 16.3 µM | IC50 (A 172, A-172, read-out: IC50): 19.9 µM | IC50 (A204, A-204, read-out: IC50): 13.9 µM | IC50 (A388, cervix, read-out: pIC50 (converted)): 14.5 µM | IC50 (A388, read-out: IC50): 14.5 µM | IC50 (A498, A-498, read-out: IC50): 24.9 µM | IC50 (A549, A-549, read-out: IC50): 19.1 µM | IC50 (A704, A704, kidney, read-out: pIC50 (converted)): 34 µM | IC50 (A704, A-704, read-out: IC50): > 100 µM | IC50 (A-375, A375, read-out: IC50): 16.1 µM | IC50 (A-427, A-427, read-out: IC50): 11.7 µM | IC50 (ACHN, read-out: IC50): 21.1 µM | IC50 (AN3-CA, AN3 CA, read-out: IC50): 18.3 µM | IC50 (ASPC1, AsPC-1, read-out: IC50): 14.8 µM | IC50 (AU565, AU-565, read-out: IC50): 12.2 µM | IC50 (BT-20, BT-20, read-out: IC50): 29.8 µM | IC50 (BT-549, BT-549, read-out: IC50): 22.7 µM | IC50 (BXPC-3, BxPC-3, read-out: IC50): 19.1 µM | IC50 (C-33-A, C-33 A, read-out: IC50): 14.6 µM | IC50 (CAL-27, CAL 27, read-out: IC50): 17.1 µM | IC50 (CCRF-CEM, CCRFCEM, blood, read-out: pIC50 (converted)): 11.7 µM | IC50 (CCRF-CEM, read-out: IC50): 11.7 µM | IC50 (COLO 205, COLO 205, read-out: IC50): 18.5 µM | IC50 (COLO-829, COLO 829, read-out: IC50): 16.8 µM | IC50 (DLD-1, DLD1, large_intestine, read-out: pIC50 (converted)): 13.8 µM | IC50 (DLD-1, DLD-1, read-out: IC50): 13.8 µM | IC50 (DU-145, DU 145, read-out: IC50): 19.3 µM | IC50 (Daoy, read-out: IC50): 15.9 µM | IC50 (DoTc2-4510, DoTc2 4510, read-out: IC50): 16.7 µM | IC50 (FaDu, read-out: IC50): 16.1 µM | IC50 (HCT-15, HCT-15, read-out: IC50): 12 µM | IC50 (HCT-116, HCT 116, read-out: IC50): 15.9 µM | IC50 (Hs-578T, Hs 578T, read-out: IC50): 13.7 µM | IC50 (J82, J82, read-out: IC50): 15.8 µM | IC50 (Jurkat E6.1, Jurkat E6.1, read-out: IC50): 12.5 µM | IC50 (K562, K-562, read-out: IC50): 10.9 µM | IC50 (KU812, KU812, read-out: IC50): 10.4 µM | IC50 (LNCaP, LNCaP FGC, read-out: IC50): > 100 µM | IC50 (LS174T, LS 174T, read-out: IC50): 13 µM | IC50 (LoVo, read-out: IC50): 19.3 µM | IC50 (MCF7, MCF7, read-out: IC50): 12.7 µM | IC50 (MG-63, MG63, bone, read-out: pIC50 (converted)): 20.4 µM | IC50 (MG-63, MG-63, read-out: IC50): 20.4 µM | IC50 (MIA PaCa-2, MIA PaCa-2, read-out: IC50): 10.9 µM | IC50 (MOLT-4, MOLT-4, read-out: IC50): 12 µM | IC50 (MeWo, read-out: IC50): 17.3 µM | IC50 (NCI-H82, NCI-H82, read-out: IC50): 13.7 µM | IC50 (NCI-H460, NCI-H460, read-out: IC50): 22.5 µM | IC50 (OVCAR-3, OVCAR-3, read-out: IC50): 14.3 µM | IC50 (PA-1, PA-1, read-out: IC50): 11.6 µM | IC50 (RKO, read-out: IC50): 8.87 µM | IC50 (RPMI-7951, RPMI-7951, read-out: IC50): 16.2 µM | IC50 (RT-4, RT4, read-out: IC50): 16.5 µM | IC50 (SHP77, SHP-77, read-out: IC50): 11.9 µM | IC50 (SJCRH30, read-out: IC50): 18.4 µM
